# Assay results as given in PubChem BioAssay AID2060899 (Molecular Pharmacology Branch, DTP, NCI, 2025).
# Tested on: 565726-208-R1-J5-PDC complex spheroids, growth inhibition
# Test: Anticancer human tumor 565726-208-R1-J5-PDC patient-derived pancreatic adenocarcinoma cell line growth inhibition [RAS]
# Conditions: for viability, T/C: stronger effect = lower value
# In short: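 Tumour cells grown as complex spheroids with HUVEC endothelial cells and mesenchymal stem cells, treated with RAS pathway inhibitor combinations. Each agent spans half-log steps from near clinical Cmax, or 10 microM where Cmax is unknown.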
# [1] = curve of first compound, second compound 0.00316 µM
# [2] = curve of first compound, second compound 0.01 µM
# [3] = curve of first compound, second compound 0.0316 µM
# [4] = curve of first compound, second compound 0.1 µM
# [5] = curve of first compound, second compound 0.316 µM
# [6] = curve of first compound, second compound 1 µM
# [7] = second compound 0.00316 µM, first compound 0.00316 µM
# [8] = second compound 0.00316 µM, first compound 0.01 µM
# [9] = second compound 0.00316 µM, first compound 0.0316 µM
# [10] = second compound 0.00316 µM, first compound 0.1 µM
# [11] = second compound 0.00316 µM, first compound 0.316 µM
# [12] = second compound 0.00316 µM, first compound 1 µM
# [13] = second compound 0.01 µM, first compound 0.00316 µM
# [14] = second compound 0.01 µM, first compound 0.01 µM
# [15] = second compound 0.01 µM, first compound 0.0316 µM
# [16] = second compound 0.01 µM, first compound 0.1 µM
# [17] = second compound 0.01 µM, first compound 0.316 µM
# [18] = second compound 0.01 µM, first compound 1 µM
# [19] = second compound 0.0316 µM, first compound 0.00316 µM
# [20] = second compound 0.0316 µM, first compound 0.01 µM
# [21] = second compound 0.0316 µM, first compound 0.0316 µM
# [22] = second compound 0.0316 µM, first compound 0.1 µM
# [23] = second compound 0.0316 µM, first compound 0.316 µM
# [24] = second compound 0.0316 µM, first compound 1 µM
# [25] = second compound 0.1 µM, first compound 0.00316 µM
# [26] = second compound 0.1 µM, first compound 0.01 µM
# [27] = second compound 0.1 µM, first compound 0.0316 µM
# [28] = second compound 0.1 µM, first compound 0.1 µM
# [29] = second compound 0.1 µM, first compound 0.316 µM
# [30] = second compound 0.1 µM, first compound 1 µM
# [31] = second compound 0.316 µM, first compound 0.00316 µM
# [32] = second compound 0.316 µM, first compound 0.01 µM
# [33] = second compound 0.316 µM, first compound 0.0316 µM
# [34] = second compound 0.316 µM, first compound 0.1 µM
# [35] = second compound 0.316 µM, first compound 0.316 µM
# [36] = second compound 0.316 µM, first compound 1 µM
# [37] = second compound 1 µM, first compound 0.00316 µM
# [38] = second compound 1 µM, first compound 0.01 µM
# [39] = second compound 1 µM, first compound 0.0316 µM
# [40] = second compound 1 µM, first compound 0.1 µM
# [41] = second compound 1 µM, first compound 0.316 µM
# [42] = second compound 1 µM, first compound 1 µM
# [43] = curve of first compound, second compound 3.16 µM
# [44] = curve of first compound, second compound 10 µM
# [45] = second compound 3.16 µM, first compound 0.0316 µM
# [46] = second compound 3.16 µM, first compound 0.1 µM
# [47] = second compound 3.16 µM, first compound 0.316 µM
# [48] = second compound 3.16 µM, first compound 1 µM
# [49] = second compound 10 µM, first compound 0.0316 µM
# [50] = second compound 10 µM, first compound 0.1 µM
# [51] = second compound 10 µM, first compound 0.316 µM
# [52] = second compound 10 µM, first compound 1 µM
# 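Also: spheroids exposed to compounds for seven days before readout.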
# 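For viability, T/C in this document: 100% = DMSO vehicle control viability.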
smiles,measurement,setting,value
Nc1ccn(C2OC(CO)C(O)C2(F)F)c(=O)n1 (centres undefined) + C=CC(=O)N1CCN(c2nc(OCC3CCCN3C)nc3c(F)c(-c4nc(N)cc(C)c4C(F)(F)F)c(Cl)cc23)C(C)C1,IC50,[1],94.9 nM
same,IC50,[2],93.4 nM
same,IC50,[3],> 1000 nM
same,IC50,[4],230 nM
same,IC50,[5],88.8 nM
same,IC50,[6],1000 nM
same,"viability, T/C",[7],89.3%
same,"viability, T/C",[8],151%
same,"viability, T/C",[9],76.5%
same,"viability, T/C",[10],54.6%
same,"viability, T/C",[11],52.6%
same,"viability, T/C",[12],39%
same,"viability, T/C",[13],113%
same,"viability, T/C",[14],149%
same,"viability, T/C",[15],84.9%
same,"viability, T/C",[16],48%
same,"viability, T/C",[17],50.5%
same,"viability, T/C",[18],44.8%
same,"viability, T/C",[19],148%
same,"viability, T/C",[20],160%
same,"viability, T/C",[21],77.1%
same,"viability, T/C",[22],59.4%
same,"viability, T/C",[23],48.9%
same,"viability, T/C",[24],49%
same,"viability, T/C",[25],156%
same,"viability, T/C",[26],134%
same,"viability, T/C",[27],89.5%
same,"viability, T/C",[28],58.1%
same,"viability, T/C",[29],47.5%
same,"viability, T/C",[30],46.3%
same,"viability, T/C",[31],139%
same,"viability, T/C",[32],134%
same,"viability, T/C",[33],72.7%
same,"viability, T/C",[34],46.4%
same,"viability, T/C",[35],52.7%
same,"viability, T/C",[36],41.5%
same,"viability, T/C",[37],153%
same,"viability, T/C",[38],142%
same,"viability, T/C",[39],82.3%
same,"viability, T/C",[40],58.3%
same,"viability, T/C",[41],55.3%
same,"viability, T/C",[42],45.6%
NC1c2ccccc2OC12CCN(c1cnc3c(N4CCCc5ncccc54)n[nH]c3n1)CC2 (centres undefined) + C#Cc1c(F)ccc2cc(O)cc(-c3ncc4c(N5CC6CCC(C5)N6)nc(OCC56CCCN5CC(F)C6)nc4c3F)c12,IC50,[3],> 10000 nM
same,IC50,[4],> 10000 nM
same,IC50,[5],> 10000 nM
same,IC50,[6],838 nM
same,IC50,[43],283 nM
same,IC50,[44],88.2 nM
same,"viability, T/C",[21],85.3%
same,"viability, T/C",[22],107%
same,"viability, T/C",[23],70.4%
same,"viability, T/C",[24],58.8%
same,"viability, T/C","second compound 0.0316 µM, first compound 3.16 µM",67.3%
same,"viability, T/C","second compound 0.0316 µM, first compound 10 µM",73.1%
same,"viability, T/C",[27],91.6%
same,"viability, T/C",[28],101%
same,"viability, T/C",[29],74.4%
same,"viability, T/C",[30],58.1%
same,"viability, T/C","second compound 0.1 µM, first compound 3.16 µM",64.7%
same,"viability, T/C","second compound 0.1 µM, first compound 10 µM",78.4%
same,"viability, T/C",[33],104%
same,"viability, T/C",[34],105%
same,"viability, T/C",[35],62%
same,"viability, T/C",[36],51.2%
same,"viability, T/C","second compound 0.316 µM, first compound 3.16 µM",56.2%
same,"viability, T/C","second compound 0.316 µM, first compound 10 µM",57.4%
same,"viability, T/C",[39],97.9%
same,"viability, T/C",[40],88.2%
same,"viability, T/C",[41],53.3%
same,"viability, T/C",[42],46.4%
same,"viability, T/C","second compound 1 µM, first compound 3.16 µM",50.3%
same,"viability, T/C","second compound 1 µM, first compound 10 µM",51.3%
same,"viability, T/C",[45],82.6%
same,"viability, T/C",[46],75.3%
same,"viability, T/C",[47],47.5%
same,"viability, T/C",[48],36.4%
same,"viability, T/C","second compound 3.16 µM, first compound 3.16 µM",32.6%
same,"viability, T/C","second compound 3.16 µM, first compound 10 µM",40.4%
same,"viability, T/C",[49],63%
same,"viability, T/C",[50],48.4%
same,"viability, T/C",[51],29.6%
same,"viability, T/C",[52],28.9%
same,"viability, T/C","second compound 10 µM, first compound 3.16 µM",28%
same,"viability, T/C","second compound 10 µM, first compound 10 µM",25.8%
CCc1c2c(nc3ccc(O)cc13)-c1cc3c(c(=O)n1C2)COC(=O)[C@]3(O)CC,"viability, T/C",compound 0.000949 µM,77.2% [middle of 4 runs]
same,"viability, T/C",compound 0.00949 µM,34.4% [middle of 4 runs]
same,"viability, T/C",compound 0.03 µM,19.3% [middle of 4 runs]
same,"viability, T/C",compound 0.0949 µM,12.7% [middle of 4 runs]
same,"viability, T/C",compound 0.3 µM,7.31% [middle of 4 runs]
same,IC50,curve of compound,2.78 nM [middle of 4 runs]
C=CC(=O)Nc1cc(Nc2nccc(-c3cn(C)c4ccccc34)n2)c(OC)cc1N(C)CCN(C)C + C=CC(=O)N1CCN(c2nc(OCC3CCCN3C)nc3c(F)c(-c4nc(N)cc(C)c4C(F)(F)F)c(Cl)cc23)C(C)C1,IC50,[1],> 1000 nM
same,IC50,[2],> 1000 nM
same,IC50,[3],> 1000 nM
same,IC50,[4],> 1000 nM
same,IC50,[5],> 1000 nM
same,IC50,[6],> 1000 nM
same,"viability, T/C",[7],105%
same,"viability, T/C",[8],171%
same,"viability, T/C",[9],121%
same,"viability, T/C",[10],90.5%
same,"viability, T/C",[11],94.2%
same,"viability, T/C",[12],121%
same,"viability, T/C",[13],137%
same,"viability, T/C",[14],150%
same,"viability, T/C",[15],106%
same,"viability, T/C",[16],94.1%
same,"viability, T/C",[17],80.9%
same,"viability, T/C",[18],128%
same,"viability, T/C",[19],168%
same,"viability, T/C",[20],157%
same,"viability, T/C",[21],88.9%
same,"viability, T/C",[22],105%
same,"viability, T/C",[23],87.6%
same,"viability, T/C",[24],114%
same,"viability, T/C",[25],135%
same,"viability, T/C",[26],162%
same,"viability, T/C",[27],124%
same,"viability, T/C",[28],87.1%
same,"viability, T/C",[29],82%
same,"viability, T/C",[30],108%
same,"viability, T/C",[31],161%
same,"viability, T/C",[32],152%
same,"viability, T/C",[33],99.8%
same,"viability, T/C",[34],106%
same,"viability, T/C",[35],74.8%
same,"viability, T/C",[36],141%
same,"viability, T/C",[37],145%
same,"viability, T/C",[38],159%
same,"viability, T/C",[39],101%
same,"viability, T/C",[40],115%
same,"viability, T/C",[41],87.3%
same,"viability, T/C",[42],109%
O=C(c1ccc(F)c(F)c1Nc1ccc(I)cc1F)N1CC(O)([C@@H]2CCCCN2)C1 + C#Cc1c(F)ccc2cc(O)cc(-c3ncc4c(N5CC6CCC(C5)N6)nc(OCC56CCCN5CC(F)C6)nc4c3F)c12,IC50,[3],593 nM
same,IC50,[4],> 1000 nM
same,IC50,[5],95 nM
same,IC50,[6],76.8 nM
same,IC50,[43],83.4 nM
same,IC50,[44],26.3 nM
same,"viability, T/C",[19],118%
same,"viability, T/C",[20],131%
same,"viability, T/C",[21],74.8%
same,"viability, T/C",[22],76.5%
same,"viability, T/C",[23],78.3%
same,"viability, T/C",[24],33.3%
same,"viability, T/C",[25],116%
same,"viability, T/C",[26],138%
same,"viability, T/C",[27],69.1%
same,"viability, T/C",[28],62.3%
same,"viability, T/C",[29],63.6%
same,"viability, T/C",[30],34.8%
same,"viability, T/C",[31],117%
same,"viability, T/C",[32],118%
same,"viability, T/C",[33],67.3%
same,"viability, T/C",[34],53.9%
same,"viability, T/C",[35],62.7%
same,"viability, T/C",[36],31%
same,"viability, T/C",[37],133%
same,"viability, T/C",[38],103%
same,"viability, T/C",[39],62.8%
same,"viability, T/C",[40],43%
same,"viability, T/C",[41],58%
same,"viability, T/C",[42],28.8%
same,"viability, T/C","second compound 3.16 µM, first compound 0.00316 µM",109%
same,"viability, T/C","second compound 3.16 µM, first compound 0.01 µM",91.7%
same,"viability, T/C",[45],65.6%
same,"viability, T/C",[46],38.8%
same,"viability, T/C",[47],43.7%
same,"viability, T/C",[48],17.8%
same,"viability, T/C","second compound 10 µM, first compound 0.00316 µM",88.1%
same,"viability, T/C","second compound 10 µM, first compound 0.01 µM",63%
same,"viability, T/C",[49],39%
same,"viability, T/C",[50],38.9%
same,"viability, T/C",[51],22.1%
same,"viability, T/C",[52],5.94%
